Experimental data as given in patent publication US20110070174A1, “Benzoyl Peroxide and Sunscreen Agent Combination” (PruGen IP Holdings, Inc., priority 2009, published 2011).

How the values were obtained:
Assay type in all cases: physicochemical
[1] = Stability Study 2: BPO/sunscreen mixture, one month at room temperature; details: for 1 MONTH-RT (content) / 1 MONTH-RT (percent of initial, in brackets): Study 2, 1 month room temperature; for % INITIAL (percent of initial, in brackets) / % INITIAL (content): Study 2, initial; for % INITIAL (content): in BPO/sunscreen mixture
Text: (§1) The stability provided by using the above formula and mixing process has heretofore been unmatched.

[2] = Multiple one-month room temperature studies after mixing the agents together; details: BPO at various percentages
Text: as §1

[3] = Stability Study 4: BPO/sunscreen mixture, one month at room temperature; details: for 1 MONTH-RT (content) / 1 MONTH-RT (percent of initial, in brackets): Study 4, 1 month room temperature; for % INITIAL (percent of initial, in brackets) / % INITIAL (content): Study 4, initial; for % INITIAL (content): in BPO/sunscreen mixture
Text: as §1

[4] = Stability of sunscreen base and benzoyl peroxide each before mixing; details: each agent separately, one-month repeatable studies
Text: as §1

[5] = Stability Study 3: BPO/sunscreen mixture, one month at room temperature; details: for 1 MONTH-RT (content) / 1 MONTH-RT (percent of initial, in brackets): Study 3, 1 month room temperature; for % INITIAL (percent of initial, in brackets) / % INITIAL (content): Study 3, initial; for % INITIAL (content): in BPO/sunscreen mixture
Text: as §1

[6] = Stability Study 1: BPO/sunscreen mixture, one month at room temperature; details: for 1 MONTH-RT (content) / 1 MONTH-RT (percent of initial, in brackets): Study 1, 1 month room temperature; for % INITIAL (percent of initial, in brackets) / % INITIAL (content): Study 1, initial; for % INITIAL (content): in BPO/sunscreen mixture
Text: as §1

| Structure (SMILES) | 1 MONTH-RT (content) [1] [%] | 1 MONTH-RT (percent of initial, in brackets) [1] [%] | % INITIAL (percent of initial, in brackets) [1] [%] | % INITIAL (content) [1] [%] | potency after mixing [2] | 1 MONTH-RT (content) [3] [%] | 1 MONTH-RT (percent of initial, in brackets) [3] [%] | % INITIAL (percent of initial, in brackets) [3] [%] | % INITIAL (content) [3] [%] | stability of each agent [4] | 1 MONTH-RT (content) [5] [%] | 1 MONTH-RT (percent of initial, in brackets) [5] [%] | % INITIAL (percent of initial, in brackets) [5] [%] | % INITIAL (content) [5] [%] | 1 MONTH-RT (content) [6] [%] | 1 MONTH-RT (percent of initial, in brackets) [6] [%] | % INITIAL (percent of initial, in brackets) [6] [%] | % INITIAL (content) [6] [%] |
| --- | --- | --- | --- | --- | --- | --- | --- | --- | --- | --- | --- | --- | --- | --- | --- | --- | --- | --- |
| O=C(OOC(=O)c1ccccc1)c1ccccc1 [BPO, Benzoyl peroxide] | 8.07 | 94 | 100 | 8.55 | remained at full potency | 7.76 | 108 | 100 | 7.16 | stable for at least one year | 6.48 | 107 | 100 | 6.02 | 7.76 | 108 | 100 | 7.16 |
| CCCCC(CC)COC(=O)C(C#N)=C(c1ccccc1)c1ccccc1 (stereo not shown) [Octocrylene] |  |  |  |  |  | 6.42 | 101 | 100 | 6.33 |  |  |  |  |  | 6.42 | 101 | 100 | 6.33 |
| COc1ccc(C(=O)CC(=O)c2ccc(C(C)(C)C)cc2)cc1 [Avobenzone] | 2.78 | 86 | 100 | 3.23 |  |  |  |  |  |  | 2.69 | 91.5 | 100 | 2.94 |  |  |  |  |
